In brackets after ≈: the same amount, converted by molar mass.
Legend:
acid ceramidase (hACR) = biological target: T1, acid ceramidase (hACR) (Homo sapiens, UniProt Q13510); assay: Acid ceramidase inhibition, biochemical fluorescent assay with cell lysates overexpressing acid ceramidase (substrate Rbm14-12); details: cell lysate, 1 hr preincubation at RT, pH 4.5, Rbm14-12 6.3 μM; read-out: IC50 hACR
T1 construct: expressed in transfected cells
T1 sequence (Q13510 22-395): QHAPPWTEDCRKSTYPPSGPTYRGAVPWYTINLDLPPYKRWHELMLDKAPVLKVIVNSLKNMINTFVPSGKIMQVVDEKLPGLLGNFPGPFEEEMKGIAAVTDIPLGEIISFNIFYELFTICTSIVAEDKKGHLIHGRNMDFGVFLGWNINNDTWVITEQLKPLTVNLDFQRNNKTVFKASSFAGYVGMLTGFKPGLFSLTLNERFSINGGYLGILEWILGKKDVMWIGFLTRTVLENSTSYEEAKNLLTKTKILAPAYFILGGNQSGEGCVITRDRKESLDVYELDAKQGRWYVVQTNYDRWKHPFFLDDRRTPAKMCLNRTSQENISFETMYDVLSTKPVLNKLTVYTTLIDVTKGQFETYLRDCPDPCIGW
Experimental: The ability of exemplary compounds to inhibit acid ceramidase was measured.
Cell lysates overexpressing acid ceramidase were used as the enzyme source for compound potency determination in a biochemical fluorescent assay. Briefly, compounds were preincubated with 10 μg protein of cell lysates in a dose-response manner for 1 hr at RT in the assay buffer containing 25 mM NaAC and 100 mM NaCl, pH 4.5. […] The samples were incubated with the stopping buffer at RT for 1 hr to allow the fluorescent product to be formed. […] Data were collected and used to determine the IC50 values of compounds by curve fitting to the four-parameter inhibition equation.

[1] = Compound solubility in water; assay type: physicochemical

Row | IC50 (acid ceramidase (hACR)) | solubility [1] | Compound Solubility in Water [1] | Compound
1 | 200 to 1000 nM | 15 µg/mL (≈ 45.5 µM) |  | COc1nc(C2CCC(F)(F)CC2)cn1C(=O)NCCC(C)C [Example 111, 4-(4,4-Difluorocyclohexyl)-N-iso-pentyl-2-methoxy-1H-imidazole-1-carboxamide]
2 | 200 to 1000 nM | 34.2 µg/mL (≈ 123 µM) |  | CC(C)CCNC(=O)n1cnc(C2CCN(C)CC2)c1 [Example 48, N-iso-Pentyl-4-(1-methylpiperidin-4-yl)-1H-imidazole-1-carboxamide]
3 | < 200 nM |  | 13 µg/mL | COc1nc(C)cn1C(=O)NCCC(C)C [Example 160, N-iso-Pentyl-2-methoxy-4-methyl-1H-imidazole-1-carboxamide]
4 |  | 29 µg/mL (≈ 66.4 µM) |  | CN1CCN(c2ncccc2-c2cn(C(=O)NCCCC3(C(F)(F)F)CC3)cn2)CC1 [Example 176, 4-(2-(4-Methylpiperazin-1-yl)pyridin-3-yl)-N-(3-(1-(trifluoromethyl)cyclopropyl)propyl)-1H-imidazole-1-carboxamide]
5 | < 200 nM | 1.9 µg/mL (≈ 5.93 µM) |  | CC(C)(CNC(=O)n1cnc(-c2cccnc2)c1)c1ccccc1 [Example 13, N-(2-Methyl-2-phenylpropyl)-4-(pyridin-3-yl)-1H-imidazole-1-carboxamide]
6 | 200 to 1000 nM | 15.1 µg/mL (≈ 50.1 µM) |  | COc1nc(C(C)(C)C)cn1C(=O)NCCc1ccccc1 [Example 11, 4-tert-Butyl-2-methoxy-N-phenethyl-1H-imidazole-1-carboxamide]
7 | < 200 nM | 17 µg/mL (≈ 72.3 µM) |  | COc1nc(C)cn1C(=O)NCC#CC(C)C [Example 180, 2-Methoxy-4-methyl-N-(4-methylpent-2-yn-1-yl)-1H-imidazole-1-carboxamide]
8 | < 200 nM | 10 µg/mL (≈ 35.5 µM) |  | COc1nc(C(C)(C)C)cn1C(=O)NCCCC(C)C [Example 102, 4-(tert-Butyl)-2-methoxy-N-(4-methylpentyl)-1H-imidazole-1-carboxamide]
9 | < 200 nM | 26 µg/mL (≈ 89.9 µM) |  | COc1nc(C)cn1C(=O)NCCCOc1ccccc1 [Example 144, 2-Methoxy-4-methyl-N-(3-phenoxypropyl)-1H-imidazole-1-carboxamide]
10 | < 200 nM | 26 µg/mL (≈ 106 µM) |  | COc1nccn1C(=O)NCCc1ccccc1 [Example 135, 2-Methoxy-N-phenethyl-1H-imidazole-1-carboxamide]
11 | < 200 nM | 31 µg/mL (≈ 93.9 µM) |  | COc1nc(Br)cn1C(=O)NCCCC(F)(F)F [Example 184, 4-Bromo-2-methoxy-N-(4,4,4-trifluorobutyl)-1H-imidazole-1-carboxamide]
12 | > 1000 nM | 7.3 µg/mL (≈ 26.8 µM) |  | Cc1ccc(-c2cn(C(=O)NCCC(C)C)cn2)cn1 [Example 37, N-iso-Pentyl-4-(6-methylpyridin-3-yl)-1H-imidazole-1-carboxamide]
13 | 200 to 1000 nM | 29 µg/mL (≈ 98.2 µM) |  | COc1nc(C2CCOCC2)cn1C(=O)NCCC(C)C [Example 110, N-iso-Pentyl-2-methoxy-4-(tetrahydro-2H-pyran-4-yl)-1H-imidazole-1-carboxamide]
14 | < 200 nM | 2.6 µg/mL (≈ 8.43 µM) |  | O=C(NCCOc1ccccc1)n1cnc(-c2cccnc2)c1 [Example 17, N-(2-Phenoxyethyl)-4-(pyridin-3-yl)-1H-imidazole-1-carboxamide]
15 | 200 to 1000 nM | 29 µg/mL (≈ 92.4 µM) |  | CC(C)Oc1nc(Cl)cn1C(=O)NCCCC(F)(F)F [Example 187, 4-Chloro-2-isopropoxy-N-(4,4,4-trifluorobutyl)-1H-imidazole-1-carboxamide]
16 | 200 to 1000 nM | 12 µg/mL (≈ 42.1 µM) |  | COc1nc(C2CC2)cn1C(=O)NCCc1ccccc1 [Example 130, 4-Cyclopropyl-2-methoxy-N-phenethyl-1H-imidazole-1-carboxamide]
17 | 200 to 1000 nM | 16.2 µg/mL (≈ 55.4 µM) |  | O=C(NCCc1ccccc1)n1cnc(-c2cccnc2)c1 [Example 5]
18 | < 200 nM | 14.3 µg/mL (≈ 46.7 µM) |  | O=C(NCCCc1ccccc1)n1cnc(-c2cccnc2)c1 [Example 14, N-(3-Phenylpropyl)-4-(pyridin-3-yl)-1H-imidazole-1-carboxamide]
19 | < 200 nM | 1 µg/mL (≈ 2.37 µM) |  | O=C(NCCCC1(C(F)(F)F)CC1)n1cnc(-c2cccnc2N2CCCCC2)c1 [Example 175, 4-(2-(Piperidin-1-yl)pyridin-3-yl)-N-(3-(1-(trifluoromethyl)cyclopropyl)propyl)-1H-imidazole-1-carboxamide]
20 | < 200 nM | 50 µg/mL (≈ 129 µM) |  | Cc1cn(C(=O)NCCOc2ccccc2)c(OCCN2CCN(C)CC2)n1 [Example 199, 4-Methyl-2-(2-(4-methylpiperazin-1-yl)ethoxy)-N-(2-phenoxyethyl)-1H-imidazole-1-carboxamide]

Row | IC50 (acid ceramidase (hACR)) | solubility [1] | Compound Solubility in Water [1] | Compound
21 | < 200 nM | 21 µg/mL (≈ 73.1 µM) |  | Cc1cn(C(=O)NCCc2ccccc2)c(OC(C)C)n1 [Example 149, 2-iso-Propoxy-4-methyl-N-phenethyl-1H-imidazole-1-carboxamide]
22 | < 200 nM | 4 µg/mL (≈ 11.9 µM) |  | Cc1cn(C(=O)NC2CCC(F)(F)CC2)c(Oc2ccccc2)n1 [Example 172, N-(4,4-Difluorocyclohexyl)-4-methyl-2-phenoxy-1H-imidazole-1-carboxamide]
23 | 200 to 1000 nM | 21 µg/mL (≈ 87.7 µM) |  | CC(C)CCNC(=O)n1ccnc1OC(C)C [Example 122, N-iso-Pentyl-2-iso-propoxy-1H-imidazole-1-carboxamide]
24 | < 200 nM | 22 µg/mL (≈ 68.9 µM) |  | COc1nc(C)cn1C(=O)NCCCCC1(C(F)(F)F)CC1 [Example 155, 2-Methoxy-4-methyl-N-(4-(1-(trifluoromethyl)-cyclopropyl)butyl)-1H-imidazole-1-carboxamide]
25 | 200 to 1000 nM | 15 µg/mL (≈ 59.2 µM) |  | COc1nc(C(C)(C)C)cn1C(=O)NCC(C)C [Example 86, 4-(tert-Butyl)-N-iso-butyl-2-methoxy-1H-imidazole-1-carboxamide]
26 | 200 to 1000 nM | 23.7 µg/mL (≈ 73.1 µM) |  | O=C(NCCC1(C(F)(F)F)CC1)n1cnc(-c2cccnc2)c1 [Example 23, 4-(Pyridin-3-yl)-N-(2-(1-(trifluoromethyl)cyclopropyl)ethyl)-1H-imidazole-1-carboxamide]
27 | 200 to 1000 nM | 1 µg/mL (≈ 2.98 µM) |  | COc1nc(-c2ccccc2)cn1C(=O)NC1CCC(F)(F)CC1 [Example 157, N-(4,4-Difluorocyclohexyl)-2-methoxy-4-phenyl-1H-imidazole-1-carboxamide]
28 | < 200 nM | 17 µg/mL (≈ 51.6 µM) |  | COc1nc(C2CCOC2)cn1C(=O)NCCCc1ccccc1 (stereo not drawn) [Example 118, 2-Methoxy-N-(3-phenylpropyl)-4-(tetrahydrofuran-3-yl)-1H-imidazole-1-carboxamide]
29 | < 200 nM | 32.8 µg/mL (≈ 77.3 µM) |  | O=C(NCCC1CC1)n1cnc(-c2cccnc2N2CCC(N3CCOCC3)CC2)c1 [Example 54, N-(2-Cyclopropylethyl)-4-(2-(4-morpholinopiperidin-1-yl)pyridin-3-yl)-1H-imidazole-1-carboxamide]
30 | > 1000 nM | 35 µg/mL (≈ 75 µM) |  | COc1nc(-c2cccnc2N2CCN(C)CC2)cn1C(=O)NCCCC1(C(F)(F)F)CC1 [Example 195]
31 | < 200 nM | 32 µg/mL (≈ 102 µM) |  | O=C(NCCCC(F)(F)F)n1ccnc1Oc1ccccc1 [Example 178, 2-Phenoxy-N-(4,4,4-trifluorobutyl)-1H-imidazole-1-carboxamide]
32 | < 200 nM | 25.1 µg/mL (≈ 77.9 µM) |  | COc1ccc(-c2cn(C(=O)NCCc3ccccc3)cn2)cn1 [Example 31, 4-(6-Methoxypyridin-3-yi)-N-phenethyl-1H-imidazole-1-carboxamide]
33 | < 200 nM | 29 µg/mL (≈ 113 µM) |  | Cc1cn(C(=O)NC2CC2)c(Oc2ccccc2)n1 [Example 147, N-Cyclopropyl-4-methyl-2-phenoxy-1H-imidazole-1-carboxamide]
34 | < 200 nM | 31 µg/mL (≈ 84.1 µM) |  | Cc1cn(C(=O)NCC#Cc2ccccc2)c(OCCN2CCOCC2)n1 [Example 196, 4-Methyl-2-(2-morpholinoethoxy)-N-(3-phenylprop-2-yn-1-yl)-1H-imidazole-1-carboxamide]
35 | 200 to 1000 nM | 18.9 µg/mL (≈ 69.4 µM) |  | CC(C)CCCNC(=O)n1cnc(-c2cccnc2)c1 [Example 33]
36 | 200 to 1000 nM | 23 µg/mL (≈ 118 µM) |  | COc1nc(C)cn1C(=O)NC1CC1 [Example 148, N-Cyclopropyl-2-methoxy-4-methyl-1H-imidazole-1-carboxamide]
37 | < 200 nM | 12 µg/mL (≈ 34.5 µM) |  | COc1nc(C(C)(C)C)cn1C(=O)NCCCC1(C(F)(F)F)CC1 [Example 96, 4-(tert-Butyl)-2-methoxy-N-(3-(1-(trifluoromethyl)cyclopropyl)propyl)-1H-imidazole-1-carboxamide]
38 | < 200 nM | 13 µg/mL (≈ 36.1 µM) |  | Cc1cn(C(=O)NC2CCC(F)(F)CC2)c(Oc2ccc(C#N)cc2)n1 [Example 163, 2-(4-Cyanophenoxy)-N-(4,4-difluorocyclohexyl)-4-methyl-1H-imidazole-1-carboxamide]
39 | 200 to 1000 nM | 25 µg/mL (≈ 79.5 µM) |  | CC(C)Oc1nc(-c2cccnc2)cn1C(=O)NCCC1CC1 [Example 65, N-(2-Cyclopropylethyl)-2-isopropoxy-4-(pyridin-3-yl)-1H-imidazole-1-carboxamide]
40 | 200 to 1000 nM |  |  | COc1nc(Cl)cn1C(=O)NCC#CC(C)C [Example 186, 4-Chloro-2-methoxy-N-(4-methylpent-2-yn-1-yl)-1H-imidazole-1-carboxamide]

From patent US20220411388A1, “SUBSTITUTED IMIDAZOLE CARBOXAMIDES AND THEIR USE IN THE TREATMENT OF MEDICAL DISORDERS” (Bial - R&D Investments, S.A., priority 2019, published 2022)
